One block for each compound: values may come before it.
Tests used:
[1] = system: LPS-induced pulmonary neutrophil infiltration; test: LPS-induced pulmonary neutrophil infiltration in ferrets; type: in vivo; conditions: for inhibition of LPS-induced neutrophilia: powder with lactose, 2 hours before LPS
Description: The inhibition of lipopolysaccharide (LSP)-induced pulmonary neutrophil infiltration by the substance is investigated in an in vivo test on male ferrets (0.6-2 kg). The experimental animals are anaesthetized with pentobarbital sodium (40 mg/kg of body weight i.p.), placed individually into a closed nebulization box of 5 l capacity and exposed to an ultrasonically nebulized aerosol of 0.01% strength LPS (lipopolysaccharide) solution (additionally 0.1% hydroxylamine in PBS) for 10 minutes. The aerosol is generated by a nebulizer driven with compressed air (0.2 Mpa). Control animals are treated with an aerosol of physiological saline solution. The animals are observed during the entire process and removed from the nebulization box after admission of fresh air. On inhalation, nebulized LPS immediately induces inflammation of the airways, which is characterized by a massive infiltration of neutrophilic granulocytes into the lungs of the experimental animals. The neutrophilia achieves its maximum 4 to 6 hours after LPS exposure. In order to be able to measure the number of infiltrated neutrophilic granulocytes, the animals are anaesthetized with an overdose of ethylurethane (1.5 g/kg of body weight i.p.) 6 hours after LPS provocation and a bronchoalveolar lavage (BAL) is carried out using 2×10 ml of physiological saline solution. The number of cells in the pooled original BAL fluid (100 μl) are determined using the automatic cell-counting apparatus sold by Bayer Diagnostic under the trade designation Technicon HIE and the different leucocytes per μl are differentiated. In each test, 2 control groups (nebulization with physiological saline solution or with LPS solution) are included. Substances having anti-inflammatory activity, particularly those which affect TNFα release or the function of the neutrophilic granulocytes, inhibit the infiltration of leucocytes. The inhibition of infiltration is determined by the comparison of the number of infiltrated neutrophils in untreated experimental animals (with and without LPS provocation).
For intrapulmonary administration, the trachea of the animals is opened under anaesthesia with 40 mg/kg i.p. of pentobarbital sodium, 3% strength, 1.3 ml/kg, a 7 cm-long PVC catheter is tied in and the test substances are administered intrapulmonarily in powder form (mixed with lactose to 20 mg/kg) by means of a syringe 2 hours before LPS provocation. The intrapulmonary administration of Example 1 in doses of 1, 3 and 10 mg/kg inhibits LPS-induced neutrophilia in a dose-dependent manner (43%, 65% and 100%).

[2] = system: LPS-induced TNFα release in human blood; test: LPS-induced TNFα release in human blood; type: cell-based; conditions: human blood diluted 1:5, LPS 10 μg/ml, 24 hours
Excerpt: The stimulation of isolated leucocytes to cytokine release can take place in various ways. Lipopolysaccharides (LPSs) are a stimulus suitable for the investigation of TNFα release. LPS is a constituent of the bacterial cell walls and is released by killing the bacteria (antibiotics or immune system). LPS particularly stimulates the activity of the phagocytizing leucocytes (tissue macrophages, granulocytes, monocytes) and causes the infiltration of leucocytes from the blood stream into the affected tissue. A cytokine important for these mechanisms is TNFα, which is secreted in large amounts by the affected cells (the monocytes and macrophages are the main source) and initiates and maintains inflammation alongside other mediators.
For the investigation of the effect on LPS-induced TNFα release, human blood was obtained from various donors (inhibition of coagulation by means of citrate) and diluted 1:5 with RPMI 1640 cell culture medium. The test substances were added to the samples in various concentrations before the LPS challenge. […] After incubation of the test batches for 24 hours at 37° C. and under 5% CO2 in an incubator, the diluted blood was centrifuged and the TNFα concentration in the cell-free supernatant was measured by means of ELISA.

[3] = system: LPS-induced pulmonary neutrophilia; test: LPS-induced pulmonary neutrophilia in domestic pigs; type: in vivo; conditions: intrapulmonary administration of 10 mg/animal
Description: Pulmonary neutrophilia can be induced with LPS in domestic pigs in a manner similar to that in the ferret. The animals are anaesthetized with pentobarbital 10 mg/kg i.v., and intubated. Using a bronchoscope, a partial bronchoalveolar lavage is carried out in order to determine the proportion of neutrophilic granulocytes under physiological conditions. The test substance is then administered and the animals inhale an ultrasonically nebulized aerosol of 0.03% strength LPS (lipopolysaccharide) solution (additionally 0.1% hydroxylamine in PBS) through the tracheal tube for 20 min. The inhaled LPS induces a reactive inflammation of the airways and neutrophilic granulocytes infiltrate on a huge scale. The neutrophilia achieves its maximum 4 to 6 hours after LPS exposure. After 6 hours, the bronchoalveolar lavage is repeated and the increase in the neutrophil count is determined arithmetically.

melting point: 245 to 247 °C
SMILES: CC(C)n1cc(C(=O)C(=O)Nc2c(Cl)cncc2Cl)c2cc(O)ccc21

melting point: 239 to 241 °C
SMILES: COc1ccc(Cn2cc(C(=O)Nc3c(Cl)cncc3Cl)c3cc(O)ccc32)cc1

melting point: 280 to 282 °C
SMILES: CCCn1cc(C(=O)C(=O)Nc2c(Cl)cncc2Cl)c2cc(O)ccc21

melting point: 199 to 201 °C
SMILES: O=C(Nc1c(Cl)cc(C(F)(F)F)cc1Cl)C(=O)c1cn(Cc2ccc(F)cc2)c2ccc(O)cc12

SMILES: COc1ccc(C(=O)Nc2c(Cl)cncc2Cl)cc1OC1CCCC1 [RPR-73401, reference compound]
inhibition of neutrophilia in the BAL ([1]; 1 mg/kg i.p.): 49%

melting point: 266 to 268 °C
SMILES: O=C(Nc1c(Cl)cncc1Cl)C(=O)c1cn(Cc2c(F)cccc2F)c2ccc(O)cc12

IC50 [2]: 0.8 µM
SMILES: O=C(Nc1c(Cl)cncc1Cl)C(=O)c1cn(Cc2ccc(F)cc2)c2ccc(O)cc12 [Example 1, N-(3,5-Dichloropyridin-4-yl)-2-[1-(4-fluorobenzyl)-5-hydroxyindol-3-yl]-2-oxoacetamide]
inhibition of LPS-induced pulmonary neutrophilia [3]: 51% | inhibition of neutrophilia in the BAL ([1]; 1 mg/kg i.p.): 18% | inhibition of LPS-induced neutrophilia ([1]; 1 mg/kg intrapulmonary): 43% | inhibition of neutrophilia in the BAL ([1]; 3 mg/kg i.p.): 64% | inhibition of LPS-induced neutrophilia ([1]; 3 mg/kg intrapulmonary): 65% | inhibition of neutrophilia in the BAL ([1]; 10 mg/kg i.p.): 78% | inhibition of LPS-induced neutrophilia ([1]; 10 mg/kg intrapulmonary): 100% | ID50, inhibition of LPS-induced neutrophilia in BAL ([1]; i.p., 2 hours before LPS provocation): 2.4 mg/kg | ID50, inhibition of LPS-induced neutrophilia ([1]; intrapulmonary administration (printed i.palm.)): 1.65 mg/kg

melting point: 176 to 178 °C
SMILES: O=C(Nc1c(Cl)cc(OC(F)(F)F)cc1Cl)C(=O)c1cn(Cc2ccc(F)cc2)c2ccc(O)cc12

melting point: 246 to 248 °C
SMILES: O=C(Nc1c(Cl)cncc1Cl)C(=O)c1cn(CC2CCCC2)c2ccc(O)cc12

melting point: 212 to 213 °C
SMILES: O=C(Nc1c(Cl)cncc1Cl)C(=O)c1cn(Cc2ccc(F)cc2)c2cc(O)ccc12

melting point: 216 to 218 °C
SMILES: O=C(Nc1c(Cl)cccc1Cl)C(=O)c1cn(Cc2ccc(F)cc2)c2ccc(O)cc12

IC50 [2]: 7 µM
SMILES: COc1ccc([C@]2(C#N)CC[C@@H](C(=O)O)CC2)cc1OC1CCCC1 [SB 207499, reference compound]
